In US8962616B2, “Heterocyclic substituted hexahydropyrano[3,4-d][1,3]thiazin-2-amine compounds” (Pfizer Inc., priority 2012, dated 2015):
Structures can show the parent of a compound that is named as a salt.

Tests used:
BACE1 enzyme = BACE1 enzyme (Homo sapiens (Human), UniProt P56817); test: BACE1 Cell-Free Assay (fluorescence polarization, synthetic APP substrate); assay type: biochemical; conditions: geometric mean of 2-7 determinations (values marked b: single determination)
Source text: This assay measures the inhibition of the beta-secretase enzyme as it cleaves a non-native peptide.
A synthetic APP substrate that can be cleaved by beta-secretase having N-terminal biotin and made fluorescent by the covalent attachment of Oregon Green at the Cys residue is used to assay beta-secretase activity in the presence or absence of the inhibitory compounds. […] The BACE1 enzyme is affinity purified material from conditioned media of CHO-K1 cells that have been transfected with a soluble BACE construct (BACE1deltaTM96His). Compounds are incubated in a ½ log dose response curve from a top concentration of 100 μM with BACE1 enzyme and the biotinylated fluorescent peptide in 384-well black plates (Thermo Scientific #4318). BACE1 is at a final concentration of 0.1 nM with a final concentration of peptide substrate of 150 nM in a reaction volume of 30 μL assay buffer (100 mM sodium acetate, pH 4.5 (brought to pH with acetic acid), and 0.001% Tween-20). Plates are covered and incubated for 3 hours at 37° C. The reaction is stopped with the addition of 30 μL of 1.5 μM Streptavidin (Pierce, #21125). After a 10 minute incubation at room temperature, plates are read on a PerkinElmer Envision for fluorescent polarization (Ex485 nm/Em530 nm). The activity of the beta-secretase enzyme is detected by changes in the fluorescence polarization that occur when the substrate is cleaved by the enzyme.

[1] = test system: H4 human neuroglioma cells over-expressing the wild-type human APP695; test: sAPPβ Whole-Cell Assay (in vitro sAPPb assay, ELISA); assay type: cell-based; conditions: 18 hours, geometric mean of 2-7 determinations (values marked b: single determination)
Protocol: Whole Cell-Free Assay (In Vitro sAPPb Assay):
H4 human neuroglioma cells over-expressing the wild-type human APP695 are treated for 18 hours with compound in a final concentration 1% DMSO. sAPPβ levels are measured using TMB-ELISA with capture APP N-terminal antibody (Affinity BioReagents, OMA1-03132), wild-type sAPPβ specific reporter p192 (Elan), and tertiary anti rabbit-HRP (GE Healthcare).

BACE2 enzyme = BACE2 enzyme (Homo sapiens (Human), UniProt Q9Y5Z0); test: BACE2 Cell-free Assay (fluorescence polarization, synthetic substrate); assay type: biochemical; conditions: single determination
Chain of BACE2 enzyme (Q9Y5Z0 63-518): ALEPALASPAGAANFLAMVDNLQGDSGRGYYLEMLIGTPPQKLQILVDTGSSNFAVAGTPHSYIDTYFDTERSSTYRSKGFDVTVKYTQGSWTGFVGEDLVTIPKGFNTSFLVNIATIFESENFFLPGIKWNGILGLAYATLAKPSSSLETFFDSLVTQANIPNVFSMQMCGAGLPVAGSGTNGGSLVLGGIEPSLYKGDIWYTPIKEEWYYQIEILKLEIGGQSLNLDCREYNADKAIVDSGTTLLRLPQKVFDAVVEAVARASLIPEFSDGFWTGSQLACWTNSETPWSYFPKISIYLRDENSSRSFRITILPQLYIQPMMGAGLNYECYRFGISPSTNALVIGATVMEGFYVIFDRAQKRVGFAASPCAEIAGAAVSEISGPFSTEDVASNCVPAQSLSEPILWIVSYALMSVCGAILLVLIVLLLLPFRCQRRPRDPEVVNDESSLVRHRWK
Protocol: This assay measures the inhibition of the BACE2 enzyme as it cleaves a non-native peptide. A synthetic substrate that can be cleaved by BACE2 having N-terminal biotin and made fluorescent by the covalent attachment of Oregon Green at the Cys residue is used to assay BACE2 activity in the presence or absence of the inhibitory compounds. The substrate is Biotin-[…]-C(Oregon green)-KK-OH. The BACE2 enzyme is available from Enzo Life Sciences (Cat # BML-SE550). Compounds are incubated in a ½ log dose response curve from a top concentration of 100 μM with BACE2 enzyme and the biotinylated fluorescent peptide in 384-well black plates (Thermo Scientific #4318). BACE2 is at a final concentration of 2.5 nM with a final concentration of peptide substrate of 150 nM in a reaction volume of 30 μL assay buffer (100 mM Sodium Acetate, pH 4.5 (brought to pH with acetic acid), and 0.001% Tween-20). Plates are covered and incubated for 3 hours at 37° C. The reaction is stopped with the addition of 30 μL of 1.5 μM Streptavidin (Pierce, #21125). After a 10 minute incubation at room temperature, plates are read on a PerkinElmer Envision for fluorescent polarization (Ex485 nm/Em530 nm). The activity of the beta-secretase enzyme is detected by changes in the fluorescence polarization that occur when the substrate is cleaved by the enzyme.

Chain of BACE1 enzyme (P56817 46-457): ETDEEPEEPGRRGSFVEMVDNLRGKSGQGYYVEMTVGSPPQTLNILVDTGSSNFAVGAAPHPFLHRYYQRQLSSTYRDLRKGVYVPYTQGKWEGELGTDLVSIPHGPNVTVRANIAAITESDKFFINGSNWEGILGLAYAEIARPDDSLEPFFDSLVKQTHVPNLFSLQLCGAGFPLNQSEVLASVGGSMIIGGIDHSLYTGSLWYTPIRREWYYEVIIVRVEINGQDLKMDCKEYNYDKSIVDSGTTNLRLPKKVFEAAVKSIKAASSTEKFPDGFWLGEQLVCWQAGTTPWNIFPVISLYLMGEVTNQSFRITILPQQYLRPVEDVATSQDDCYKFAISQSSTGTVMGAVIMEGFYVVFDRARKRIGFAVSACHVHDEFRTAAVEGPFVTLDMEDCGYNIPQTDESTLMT

Row | Compound | IC50 (BACE1 enzyme) [nM] | IC50 ([1]; Homo sapiens) [nM] | IC50 (BACE2 enzyme) [nM] | IC50 [1] [nM]
1 | NC1=N[C@@]2(c3ccc(F)cc3F)CO[C@@H](c3ncc(F)cn3)C[C@H]2CS1 [Example 23, (4aR,6R,8aS)-8a-(2,4-difluorophenyl)-6-(5-fluoropyrimidin-2-yl)-4,4a,5,6,8,8a-hexahydropyrano[3,4-d][1,3]thiazin-2-amine] | 161 | 10 |  | 
2 | (4aR,6R,8aS)-8a-(2,4-Difluorophenyl)-6-(3-methyl-1,2,4-oxadiazol-5-yl)-4,4-a,5,6,8,8a-hexahydropyrano[3,4-][1,3]thiazin-2-amine, trifluoroacetate salt [Example 13] | 439 |  | 208 | 34
3 | Cc1cc([C@H]2C[C@H]3CSC(N)=N[C@@]3(c3ccc(F)cc3F)CO2)on1 [Example 16, (4aR,6R,8aS)-8a-(2,4-Difluorophenyl)-6-(3-methyl-1,2-oxazol-5-yl)-4,4-a,5,6,8,8a-hexahydropyrano[3,4-][1,3]thiazin-2-amine] | 59 |  |  | 3
4 | Cc1nc([C@H]2C[C@H]3CSC(N)=N[C@@]3(c3ccc(F)cc3F)CO2)co1 [Example 11, (4aR,6R,8aS)-8a-(2,4-Difluorophenyl)-6-(2-methyl-1,3-oxazol-4-yl)-4,4-a,5,6,8,8a-hexahydropyrano[3,4-d][1,3]thiazin-2-amine, hydrochloride salt] | 316 |  | 2020 | 34
5 | Cc1coc([C@H]2C[C@H]3CSC(N)=N[C@@]3(c3ccc(F)cc3F)CO2)n1 [Example 4, (4aR,6R,8aS)-8a-(2,4-Difluorophenyl)-6-(4-methyl-1,3-oxazol-2-yl)-4,4-a,5,6,8,8a-hexahydropyrano[3,4-][1,3]thiazin-2-amine] | 84 |  | 273 | 4
6 | C[C@H]1SC(N)=N[C@@]2(c3ccc(F)cc3F)CO[C@@H](c3ncco3)C[C@@H]12 [Example 6, (4R,4aR,6R,8aS)-8a-(2,4-Difluorophenyl)-4-methyl-6-(1,3-oxazol-2-yl)-4,4-a,5,6,8,8a-hexahydropyrano[3,4-][1,3]thiazin-2-amine] | 198 |  | 2370 | 32
7 | Cn1cc([C@H]2C[C@H]3CSC(N)=N[C@@]3(c3ccc(F)cc3F)CO2)cn1 [Example 7, (4aR,6R,8aS)-8a-(2,4-Difluorophenyl)-6-(1-methyl-1H-pyrazol-4-yl)-4,4-a,5,6,8,8a-hexahydropyrano[3,4-][1,3]thiazin-2-amine] |  |  | 185 | 5
8 | NC1=N[C@@]2(c3ccc(F)cc3F)CO[C@@H](c3ccn(C4CC4)n3)C[C@H]2CS1 [Example 19, (4aR,6R,8aS)-6-(1-cyclopropyl-1H-pyrazol-3-yl)-8a-(2,4-difluorophenyl)-4,4a,5,6,8,8a-hexahydropyrano[3,4-d][1,3]thiazin-2-amine] | 444 |  |  | 
9 | Cc1nccc([C@H]2C[C@H]3CSC(N)=N[C@@]3(c3ccc(F)cc3F)CO2)n1 [Example 9, (4aR,6R,8aS)-8a-(2,4-Difluorophenyl)-6-(2-methylpyrimidin-4-yl)-4,4-a,5,6,8,8a-hexahydropyrano[3,4-][1,3]thiazin-2-amine] | 583 |  | > 100000 | 28
10 | NC1=N[C@@]2(c3ccc(F)cc3F)CO[C@@H](c3ccncn3)C[C@H]2CS1 [Example 18, (4aR,6R,8aS)-8a-(2,4-difluorophenyl)-6-(pyrimidin-4-yl)-4,4a,5,6,8,8a-hexahydropyrano[3,4-d][1,3]thiazin-2-amine] | 390 | 28 | 695 | 
11 | (4aR,6R,8aS)-8a-(2,4-Difluorophenyl)-6-(5-methyl-1,3,4-oxadiazol-2-yl)-4,4-a,5,6,8,8a-hexahydropyrano[3,4-d][1,3]thiazin-2-amine [Example 17] | 301 |  | 5560 | 10
12 | Cc1cnc([C@H]2C[C@H]3CSC(N)=N[C@@]3(c3ccc(F)cc3F)CO2)o1 [Example 5, (4aR,6R,8aS)-8a-(2,4-Difluorophenyl)-6-(5-methyl-1,3-oxazol-2-yl)-4,4-a,5,6,8,8a-hexahydropyrano[3,4-d][1,3]thiazin-2-amine] | 473 |  | 1150 | 23
13 | Cc1nc([C@H]2C[C@H]3CSC(N)=N[C@@]3(c3ccc(F)cc3F)CO2)oc1C [Example 15, (4aR,6R,8aS)-8a-(2,4-Difluorophenyl)-6-(4,5-dimethyl-1,3-oxazol-2-yl)-4,4-a,5,6,8,8a-hexahydropyrano[3,4-d][1,3]thiazin-2-amine] | 112 |  | 2820 | 7
14 | Cc1coc([C@H]2C[C@H]3[C@@H](C)SC(N)=N[C@@]3(c3ccc(F)cc3F)CO2)n1 [Example 22, (4R,4aR,6R,8aS)-8a-(2,4-difluorophenyl)-4-methyl-6-(4-methyl-1,3-oxazol-2-yl)-4,4a,5,6,8,8a-hexahydropyrano[3,4-d][1,3]thiazin-2-amine] |  | 6 | 1400 | 
15 | Cc1csc([C@H]2C[C@H]3CSC(N)=N[C@@]3(c3ccc(F)cc3F)CO2)n1 [Example 8, (4aR,6R,8aS)-8a-(2,4-Difluorophenyl)-6-(4-methyl-1,3-thiazol-2-yl)-4,4-a,5,6,8,8a-hexahydropyrano[3,4-][1,3]thiazin-2-amine] | 260 |  | 9720 | 27
16 | NC1=N[C@@]2(c3ccc(F)cc3F)CO[C@@H](c3ncco3)C[C@H]2CS1 [Example 1, (4aR,6R,8aS)-8a-(2,4-Difluorophenyl)-6-(1,3-oxazol-2-yl)-4,4-a,5,6,8,8a-hexahydropyrano[3,4-][1,3]thiazin-2-amine] | 511 |  | 619 | 32
17 | Cn1nccc1[C@H]1C[C@H]2CSC(N)=N[C@@]2(c2ccc(F)cc2F)CO1 [Example 3, (4aR,6R,8aS)-8a-(2,4-Difluorophenyl)-6-(1-methyl-1H-pyrazol-5-yl)-4,4-a,5,6,8,8a-hexahydropyrano[3,4-d][1,3]thiazin-2-amine] | 7780 |  |  | 636
18 | Cc1cnc([C@H]2C[C@H]3CSC(N)=N[C@@]3(c3ccc(F)cc3F)CO2)nc1 [Example 24, (4aR,6R,8aS)-8a-(2,4-difluorophenyl)-6-(5-methylpyrimidin-2-yl)-4,4a,5,6,8,8a-hexahydropyrano[3,4-d][1,3]thiazin-2-amine, trifluoroacetate salt] | 688 | 24 | 1080 | 
19 | NC1=N[C@@]2(c3ccc(F)cc3F)CO[C@@H](c3nc(C(F)(F)F)co3)C[C@H]2CS1 [Example 20, (4aR,6R,8aS)-8a-(2,4-difluorophenyl)-6-[4-(trifluoromethyl)-1,3-oxazol-2-yl]-4,4a,5,6,8,8a-hexahydropyrano[3,4-d][1,3]thiazin-2-amine] | 467 | 14 | 629 | 
20 | NC1=N[C@@]2(c3ccc(F)cc3F)CO[C@@H](c3ncccn3)C[C@H]2CS1 [Example 21, (4aR,6R,8aS)-8a-(2,4-difluorophenyl)-6-(pyrimidin-2-yl)-4,4a,5,6,8,8a-hexahydropyrano[3,4-d][1,3]thiazin-2-amine] | 983 | 44 | 3090 | 
21 | NC1=N[C@@]2(c3ccc(F)cc3F)CO[C@@H](c3nnco3)C[C@H]2CS1 [Example 14, (4aR,6R,8aS)-8a-(2,4-Difluorophenyl)-6-(1,3,4-oxadiazol-2-yl)-4,4-a,5,6,8,8a-hexahydropyrano[3,4-][1,3]thiazin-2-amine] | 2210 |  |  | 196
22 | Cc1ccnc([C@H]2C[C@H]3CSC(N)=N[C@@]3(c3ccc(F)cc3F)CO2)n1 [Example 12, (4aR,6R,8aS)-8a-(2,4-Difluorophenyl)-6-(4-methylpyrimidin-2-yl)-4,4-a,5,6,8,8a-hexahydropyrano[3,4-][1,3]thiazin-2-amine] | 1470 |  |  | 50
